Test results: US20230131427A1, “FUNGICIDAL COMPOSITIONS” (SYNGENTA CROP PROTECTION AG, priority 2020, published 2023)
Like-named read-outs stand apart in the source and are kept apart here.

Assays:
Septoria tritici = test: Example B3: mixtures, preventative activity against Septoria tritici (leaf blotch), liquid culture; format: cell-based; conditions: for inhibition at 0.1 ppm / inhibition at 0.3 ppm: Zymoseptoria tritici, read-out: Activity (%) B; for Activity (%) B: 100-0 scale
Description: (§1) This occurs whenever the action of an active ingredient combination is greater than the sum of the actions of the individual components. The action to be expected E for a given active ingredient combination obeys the so-called COLBY formula and can be calculated as follows (COLBY, S. R. “Calculating synergistic and antagonistic responses of herbicide combination”. Weeds, Vol. 15, pages 20-22; 1967):
(§2) If the action actually observed (O) is greater than the expected action (E), then the action of the combination is super-additive, i.e. there is a synergistic effect. In mathematical terms, synergism corresponds to a positive value for the difference of (O-E). In the case of purely complementary addition of activities (expected activity), said difference (O-E) is zero. A negative value of said difference (O-E) signals a loss of activity compared to the expected activity.
(§3) Conidia of the fungus from cryogenic storage were directly mixed into nutrient broth (PDB potato dextrose broth). A DMSO solution of the test compounds was placed into a microtiter plate (96-well format) and the nutrient broth containing the fungal spores was added to it.
(§4) Fungicidal activity was evaluated on a 100-0 scale (100=no disease growth; 0=well completely covered by mycelium).

[1] = test system: Mycosphaerella arachidis syn. Cercospora arachidicola; test: Example B4: mixtures, preventative activity against Mycosphaerella arachidis syn. Cercospora arachidicola (brown leaf spot of peanut), liquid culture; format: cell-based; conditions: Mycosphaerella arachidis, component B alone
Description: as §1, §2, §3
Cercospora arachidicola (Brown leaf spot of peanut). Fungicidal activity was evaluated on a 100-0 scale (100=no disease growth; 0=well completely covered by mycelium).

[2] = test system: Glomerella lagenarium syn. Colletotrichum lagenarium; test: Example B1: mixtures, preventative activity against Glomerella lagenarium syn. Colletotrichum lagenarium, liquid culture; format: cell-based
Description: as §1, §2, §3, §4

Septoria glycines = test: Example B2: mixtures, preventative activity against Septoria glycines (brown spot), liquid culture; format: cell-based; conditions: component B alone
Description: as §1, §2
as §3, with “fungus harvested” for “fungus”, “a fresh culture grown on artificial media,” for “cryogenic storage”
as §4

Phakopsora pachyrhizi = test: Example B5: preventative activity against Phakopsora pachyrhizi (soybean rust), whole soybean plants sprayed, leaf disks inoculated; format: in vivo
Experimental: Whole soybean plants are treated with the recited active ingredients 4 weeks after planting. 1 day after spraying leaf disks are cut from the first trifoliate leaf. Five repetitions at each rate are conducted. The leaf disks are inoculated with Phakopsora pachyrhizi (Asian soybean rust) one day after treatment.
Evaluation of the leaf disks is conducted 11 to 14 days after inoculation and the activity is derived from the relation of the treated vs untreated, infested check (100=no disease, no damage to the leaf, 0=high infestation, leaf damaged heavily). The rates of the active ingredients used are given in the tables as g active ingredient (a.i.)/ha.

[3] = Colletotrichum orbiculare, read-out: Activity (%) B
[4] = Phakopsora pachyrhizi, foliar, read-out: Observed Activity (% of untreated) against Phakopsora pachyrhizi

In the case of O=C(NCCc1ncc(C(F)(F)F)cc1Cl)c1ccccc1C(F)(F)F [fluopyram], the inhibition at 0.1 ppm (Septoria tritici; 72 h, component B alone, 0.1 ppm, 72 hrs, 100=no disease growth) is reported as 0%, the inhibition at 0.3 ppm (Septoria tritici; 72 h, component B alone, 0.3 ppm, 72 hrs) is reported as 50% and the inhibition at 0.1 ppm ([1]; 0.1 ppm) is reported as 0%. It also gave an inhibition at 0.3 ppm ([1]; 0.3 ppm) of 90%.

For Cc1nc2c(F)c(F)ccc2cc1Oc1cccc(F)c1C(C)(C)O [ipflufenoquin], the “Activity (%) B” value ([2]; component B alone, 0.1 ppm) was 20%, the “Activity (%) B” value ([2]; component B alone, 0.3 ppm) was 100% and the “Activity (%) B” value (Septoria glycines; 0.1 ppm, 100-0 scale) was 0%. For the same molecule, the “Activity (%) B” value (Septoria glycines; 0.3 ppm, 100-0 scale) was 0%, the “Activity (%) B” value (Septoria tritici; component B alone, 0.1 ppm) was 0% and the “Activity (%) B” value (Septoria tritici; component B alone, 0.3 ppm) was 20%.

N#Cc1c[nH]cc1-c1cccc2c1OC(F)(F)O2 [fludioxonil, reference compound] showed an inhibition at 0.1 ppm [2, 3] of 0%, an inhibition at 0.3 ppm [2, 3] of 0% and an inhibition at 450 g/ha (Phakopsora pachyrhizi; [4]) of 0%. It also gave an inhibition at 900 g/ha (Phakopsora pachyrhizi; [4]) of 1%, an inhibition at 0.1 ppm (Septoria tritici; 72 h) of 0% and an inhibition at 0.3 ppm (Septoria tritici; 72 h) of 20%. The inhibition at 0.1 ppm (Septoria tritici) was 0% and the inhibition at 0.3 ppm (Septoria tritici) was 20%.

With OC(Cc1ccccc1Cl)(Cn1nc[nH]c1=S)C1(Cl)CC1 (stereo not drawn) [proth ioconazole, prothioconazole, reference compound] the inhibition at 0.3 ppm ([2]; Colletotrichum orbiculare, component B alone, 0.3 ppm, read-out: Activity (%) B) was 50%, the “Activity (%) B” value ([2]; component B alone, 0.1 ppm) was 20% and the inhibition at 22.5 g/ha (Phakopsora pachyrhizi; Phakopsora pachyrhizi, foliar, active ingredient alone, 22.5 g/ha, read-out: Observed Activity (%) (% of untreated)) was 47%. It also gave an inhibition at 45 g/ha (Phakopsora pachyrhizi; Phakopsora pachyrhizi, foliar, active ingredient alone, 45 g/ha, read-out: Observed Activity (%) (% of untreated)) of 80%, an inhibition at 90 g/ha (Phakopsora pachyrhizi; Phakopsora pachyrhizi, foliar, active ingredient alone, read-out: Observed Activity (%) (% of untreated)) of 94% and an inhibition at 22.5 g/ha (Phakopsora pachyrhizi; Phakopsora pachyrhizi, foliar, applied alone, 22.5 g/ha, read-out: Observed Activity (% of untreated) against Phakopsora pachyrhizi) of 47%. The inhibition at 45 g/ha (Phakopsora pachyrhizi; Phakopsora pachyrhizi, foliar, applied alone, 45 g/ha, read-out: Observed Activity (% of untreated) against Phakopsora pachyrhizi) was 80%, the inhibition at 90 g/ha (Phakopsora pachyrhizi; Phakopsora pachyrhizi, foliar, applied alone, read-out: Observed Activity (% of untreated) against Phakopsora pachyrhizi) was 94% and the inhibition at 0.1 ppm (Septoria glycines; Septoria glycines, 0.1 ppm, 100-0 scale, read-out: Activity (%) B) was 90%. The inhibition at 0.3 ppm (Septoria glycines; Septoria glycines, 0.3 ppm, 100-0 scale) was 90% and the “Activity (%) B” value (Septoria glycines; 0.3 ppm) was 50%.

For Cn1cc(C(=O)Nc2ccccc2-c2cc(F)c(F)c(F)c2)c(C(F)F)n1 [fluxapyroxad, reference compound], the “Activity (%) B” value ([2]; component B alone, 0.1 ppm) was 0%, the “Activity (%) B” value ([2]; component B alone, 0.3 ppm) was 0% and the “Observed Activity (% of untreated) against Phakopsora pachyrhizi” value (from here on “Observed Activity (% of untreated)”) (Phakopsora pachyrhizi; applied alone, 2.25 g/ha) was 8%. For the same molecule, the “Observed Activity (% of untreated)” value (Phakopsora pachyrhizi; applied alone, 4.5 g/ha) was 7% and the “Observed Activity (% of untreated)” value (Phakopsora pachyrhizi; applied alone, 9 g/ha) was 66%.

In the case of Cc1cccc(-n2nnn(C)c2=O)c1COc1ccn(-c2ccc(Cl)cc2)n1 [metyltetraprole, reference compound], the “Activity (%) B” value ([2]; component B alone, 0.1 ppm) is reported as 90%, the “Activity (%) B” value ([2]; component B alone, 0.3 ppm) is reported as 90% and the “Observed Activity (%) (% of untreated)” value (Phakopsora pachyrhizi; active ingredient alone, 2.25 g/ha) is reported as 1%. The “Observed Activity (%) (% of untreated)” value (Phakopsora pachyrhizi; active ingredient alone, 4.5 g/ha) was 0%, the “Observed Activity (%) (% of untreated)” value (Phakopsora pachyrhizi; active ingredient alone, 9 g/ha) was 7% and the “Observed Activity (%) (% of untreated)” value (Phakopsora pachyrhizi; active ingredient alone, 18 g/ha) was 67%. For the same molecule, the “Observed Activity (% of untreated)” value (Phakopsora pachyrhizi; applied alone, 2.25 g/ha) was 1%, the “Observed Activity (% of untreated)” value (Phakopsora pachyrhizi; applied alone, 4.5 g/ha) was 0% and the “Observed Activity (% of untreated)” value (Phakopsora pachyrhizi; applied alone, 9 g/ha) was 7%. For the same molecule, the “Observed Activity (% of untreated)” value (Phakopsora pachyrhizi; applied alone, 18 g/ha) was 67%.

CON(C(=O)c1cn(C)nc1C(F)F)C(C)Cc1c(Cl)cc(Cl)cc1Cl (stereo not drawn) [pydiflumetofen, reference compound] was tested, and the “Activity (%) B” value ([2]; component B alone, 0.1 ppm) was 0%, the “Activity (%) B” value ([2]; component B alone, 0.3 ppm) was 0% and the “Observed Activity (%) (% of untreated) against Phakopsora pachyrhizi” value (Phakopsora pachyrhizi; applied alone, 22.5 g/ha) was 28%. The “Observed Activity (%) (% of untreated) against Phakopsora pachyrhizi” value (Phakopsora pachyrhizi; applied alone, 45 g/ha) was 74%.
